The values below are quoted from earlier work in patent US20150031774A1, “RASAGILINE ORALLY DISINTEGRATING COMPOSITIONS” (priority 2004, published 2015).

In the data set the target is 9-form of the enzyme monoamine oxidase (Homo sapiens, UniProt P27338). Conditions: prior-art patents cited in background.
Chain of 9-form of the enzyme monoamine oxidase (P27338 whole entry): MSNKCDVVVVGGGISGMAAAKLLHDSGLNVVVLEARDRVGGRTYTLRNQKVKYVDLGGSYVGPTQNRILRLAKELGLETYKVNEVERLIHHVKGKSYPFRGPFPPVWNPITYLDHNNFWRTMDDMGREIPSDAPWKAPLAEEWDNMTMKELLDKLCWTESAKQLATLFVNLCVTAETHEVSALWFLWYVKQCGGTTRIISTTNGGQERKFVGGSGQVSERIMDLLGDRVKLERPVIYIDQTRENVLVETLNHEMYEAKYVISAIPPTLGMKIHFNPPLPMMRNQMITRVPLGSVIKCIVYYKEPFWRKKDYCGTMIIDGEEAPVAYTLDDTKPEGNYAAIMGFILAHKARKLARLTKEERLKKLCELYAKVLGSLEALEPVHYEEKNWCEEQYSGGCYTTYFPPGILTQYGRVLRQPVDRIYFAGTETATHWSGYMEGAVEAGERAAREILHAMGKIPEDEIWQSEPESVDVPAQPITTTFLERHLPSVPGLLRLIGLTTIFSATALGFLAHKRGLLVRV

Regarding `C#CCN[C@@H]1CCc2ccccc21` [Rasagiline, R(+)-propargyl-1-aminoindan], the “selectivity of monoamine oxidase inhibition” value is “selective inhibitor”.
